Biological target: T1, human GST-PIKFYVE (Homo sapiens, UniProt Q9Y2I7)
T1 construct: GST; purchased Carna biosciences 11-118
Test: ADP-Glo kinase assay, enzyme inhibition activity against human PIKFYVE (Carna biosciences)
Type: biochemical
Details: inhibitory activity at final compound concentration 10 nM; 1 hour at room temperature
Method: The enzyme inhibition activity values for the compounds according to Examples against human PIKFYVE were calculated using the ADP-Glo™ kinase assay service of Carna biosciences, Inc. The enzyme activity evaluation method provided by Carna biosciences Inc., is shown below.
Enzyme inhibition activity was evaluated by reacting the compounds according to Examples with human GST-PIKFYVE (11-118, Carna biosciences), which was purified using glutathione Sepharose chromatography. The reaction buffer used was composed of 50 mmol/L MOPS, 1 mmol/L DTT, and pH 7.2, and all reactions of the test distilled water were performed in the buffer.
Compounds were prepared as solutions in 100% DMSO as 100× stocks and adjusted to have a final sample concentration of 10 nM.
The substrate-enzyme reaction for PIKFYVE was performed by mixing 5 μL human GST-PIKFYVE, 5 μL compounds according to Examples, 5 μL enzyme substrate, and 5 μL purified ATP and reacting for 1 hour at room temperature. After the substrate-enzyme reaction, 20 μL ADP-Glo™ Reagent was added and reacted at room temperature for 40 minutes, then 40 μL Kinase Detection Reagent was added and reacted at room temperature for 40 minutes.
After completion of the reaction, the degree of enzyme activity inhibition was measured by luminescence. The fluorescence of the enzyme activity in the solvent control group […] was set to 100%, and the fluorescence of the enzyme activity in the solvent control group without compound treatment was set to 0%. The inhibitory activity of each compound according to Examples was calculated based on these values.

T1 sequence (Q9Y2I7 whole entry): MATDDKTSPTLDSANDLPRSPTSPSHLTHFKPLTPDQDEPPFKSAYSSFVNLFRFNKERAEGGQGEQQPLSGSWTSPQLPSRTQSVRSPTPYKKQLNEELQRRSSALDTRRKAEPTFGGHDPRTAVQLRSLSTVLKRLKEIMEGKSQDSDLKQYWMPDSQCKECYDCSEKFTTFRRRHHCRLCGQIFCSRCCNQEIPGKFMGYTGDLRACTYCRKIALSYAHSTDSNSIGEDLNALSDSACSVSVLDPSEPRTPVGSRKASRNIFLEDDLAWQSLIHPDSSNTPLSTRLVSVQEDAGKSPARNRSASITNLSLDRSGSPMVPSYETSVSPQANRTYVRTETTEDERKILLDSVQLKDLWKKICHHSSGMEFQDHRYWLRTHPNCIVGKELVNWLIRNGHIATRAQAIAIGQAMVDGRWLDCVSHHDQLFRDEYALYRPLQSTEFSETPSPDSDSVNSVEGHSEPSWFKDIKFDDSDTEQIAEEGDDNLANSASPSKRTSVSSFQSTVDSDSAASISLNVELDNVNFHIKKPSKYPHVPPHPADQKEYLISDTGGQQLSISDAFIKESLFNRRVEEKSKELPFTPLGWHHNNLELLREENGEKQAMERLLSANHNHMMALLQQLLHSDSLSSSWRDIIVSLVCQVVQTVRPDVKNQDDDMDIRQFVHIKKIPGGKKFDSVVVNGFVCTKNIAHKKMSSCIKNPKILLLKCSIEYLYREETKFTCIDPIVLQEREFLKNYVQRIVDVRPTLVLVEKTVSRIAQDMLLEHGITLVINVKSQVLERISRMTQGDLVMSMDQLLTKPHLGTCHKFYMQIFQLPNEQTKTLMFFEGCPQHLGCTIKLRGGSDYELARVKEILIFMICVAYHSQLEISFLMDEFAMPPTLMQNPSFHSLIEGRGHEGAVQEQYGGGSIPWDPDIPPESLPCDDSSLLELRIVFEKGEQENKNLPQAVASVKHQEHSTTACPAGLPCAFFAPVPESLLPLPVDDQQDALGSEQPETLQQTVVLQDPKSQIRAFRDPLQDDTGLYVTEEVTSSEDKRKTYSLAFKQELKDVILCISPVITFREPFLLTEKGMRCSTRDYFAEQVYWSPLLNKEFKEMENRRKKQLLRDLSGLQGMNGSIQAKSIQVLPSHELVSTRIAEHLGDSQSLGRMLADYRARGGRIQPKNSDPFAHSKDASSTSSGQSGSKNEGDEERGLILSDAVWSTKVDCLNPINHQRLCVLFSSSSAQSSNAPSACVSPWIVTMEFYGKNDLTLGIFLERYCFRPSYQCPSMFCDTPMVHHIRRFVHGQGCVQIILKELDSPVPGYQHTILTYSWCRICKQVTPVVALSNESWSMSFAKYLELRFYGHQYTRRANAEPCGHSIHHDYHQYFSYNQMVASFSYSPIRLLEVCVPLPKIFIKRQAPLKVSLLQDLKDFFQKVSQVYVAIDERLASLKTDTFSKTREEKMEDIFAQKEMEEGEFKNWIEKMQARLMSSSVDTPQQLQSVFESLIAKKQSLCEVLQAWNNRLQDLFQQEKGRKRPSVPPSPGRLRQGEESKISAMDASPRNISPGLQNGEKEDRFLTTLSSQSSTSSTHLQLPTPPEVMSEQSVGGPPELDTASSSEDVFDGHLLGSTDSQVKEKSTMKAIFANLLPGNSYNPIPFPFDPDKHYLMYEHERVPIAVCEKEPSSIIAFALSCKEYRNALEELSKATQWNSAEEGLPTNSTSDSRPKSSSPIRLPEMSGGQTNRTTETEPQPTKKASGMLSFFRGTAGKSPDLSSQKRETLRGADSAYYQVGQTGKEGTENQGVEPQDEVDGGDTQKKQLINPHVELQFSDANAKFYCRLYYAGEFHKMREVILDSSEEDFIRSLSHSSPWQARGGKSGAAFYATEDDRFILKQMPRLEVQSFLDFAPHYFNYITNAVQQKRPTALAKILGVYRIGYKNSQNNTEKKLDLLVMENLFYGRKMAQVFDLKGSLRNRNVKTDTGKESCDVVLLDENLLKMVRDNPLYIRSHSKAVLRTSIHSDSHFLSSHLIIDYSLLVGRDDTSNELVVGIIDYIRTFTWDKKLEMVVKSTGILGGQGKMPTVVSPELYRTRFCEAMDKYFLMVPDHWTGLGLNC

Row | SMILES | ADP-Glo kinase assay (%, 10 nM) [%]
1 | Cc1cccc(/C=N/Nc2nc(N3CCOCC3)nc3c(-c4ccccc4)cn(C)c23)c1 [Example 9, (E)-4-(5-methyl-4-(2-(3-methylbenzylidene)hydrazinyl)-7-phenyl-5H-pyrrolo[3,2-d]pyrimidin-2-yl)morpholine] | 51.47
2 | Cc1cccc(/C=N/Nc2nc(N3CCOCC3)nc3c2cnn3-c2cccnc2)c1 [Example 13, (E)-4-(4-(2-(3-methylbenzylidene)hydrazinyl)-1-(pyridin-3-yl)-1H-pyrazolo[3,4-d]pyrimidin-6-yl)morpholine] | 51.68
3 | Cc1cccc(/C=N/Nc2nc(N3CCOCC3)nc3c2cnn3-c2ccncc2)c1 [Example 16, (E)-4-(4-(2-(3-methylbenzylidene)hydrazinyl)-1-(pyridin-4-yl)-1H-pyrazolo[3,4-d]pyrimidin-6-yl)morpholine] | 63.02
4 | Cc1cccc(/C=N/Nc2nc(N3CCOCC3)nc3c2ncn3CC(=O)C2CC2)c1 [Example 19, (E)-1-cyclopropyl-2-(6-(2-(3-methylbenzylidene)hydrazinyl)-2-morpholino-9H-purin-9-yl)ethan-1-one] | 58.67
5 | Cc1cccc(/C=N/Nc2nc(N3CCOCC3)nc3c2ncn3CC(=O)N2CCc3ccccc32)c1 [Example 29, (E)-1-(indolin-1-yl)-2-(6-(2-(3-methylbenzylidene)hydrazinyl)-2-morpholino-9H-purin-9-yl)ethan-1-one] | 55.15
6 | COc1cccc(C(=O)Cn2cnc3c(N/N=C/c4cccc(C)c4)nc(N4CCOCC4)nc32)c1 [Example 38, (E)-1-(3-methoxyphenyl)-2-(6-(2-(3-methylbenzylidene)hydrazinyl)-2-morpholino-9H-purin-9-yl)ethan-1-one] | 82.96
7 | Cc1cccc(/C=N/Nc2nc(N3CCOCC3)nc3c2ncn3CC(=O)c2ccc(F)cc2)c1 [Example 47, (E)-1-(4-fluorophenyl)-2-(6-(2-(3-methylbenzylidene)hydrazinyl)-2-morpholino-9H-purin-9-yl)ethan-1-one] | 60.82
8 | Cc1cccc(/C=N/Nc2nc(N3CCOCC3)nc3c2ncn3CC(=O)c2cccc(OC(F)(F)F)c2)c1 [Example 50, (E)-2-(6-(2-(3-methylbenzylidene)hydrazinyl)-2-morpholino-9H-purin-9-yl)-1-(3-(trifluoromethoxy)phenyl)ethan-1-one] | 54.37
9 | Cc1cccc(/C=N/Nc2nc(N3CCOCC3)nc3c2ncn3CC(=O)c2ccc(N3CCOCC3)cc2N2CCOCC2)c1 [Example 51, (E)-1-(2,4-dimorpholinophenyl)-2-(6-(2-(3-methylbenzylidene)hydrazinyl)-2-morpholino-9H-purin-9-yl)ethan-1-one] | 66.19
10 | Cc1cccc(/C=N/Nc2nc(N3CCOCC3)nc3c2ncn3CC(=O)c2cnccn2)c1 [Example 54, (E)-2-(6-(2-(3-methylbenzylidene)hydrazinyl)-2-morpholino-9H-purin-9-yl)-1-(pyrazin-2-yl)ethan-1-one] | 58.10
11 | COc1cccc(-c2ccn(-c3nc(N4CCOCC4)nc4c3ncn4CC(=O)c3ccccn3)n2)c1 [Example 68, 2-(6-(3-(3-methoxyphenyl)-1H-pyrazol-1-yl)-2-morpholino-9H-purin-9-yl)-1-(pyridin-2-yl)ethan-1-one] | 56.03
12 | Cc1cccc(/C=N/Nc2nc(N3CCOCC3)nc3c2ncn3C2CN(C(=O)c3ccccc3)C2)c1 [Example 81, (E)-(3-(6-(2-(3-methylbenzylidene)hydrazinyl)-2-morpholino-9H-purin-9-yl)azetidin-1-yl)(phenyl)methanone] | 60.34
13 | Cc1cccc(/C=N/Nc2nc(N3CCOCC3)nc3c2ncn3C2CN(C(=O)c3cccnc3)C2)c1 [Example 82, (E)-3-(6-(2-(3-methylbenzylidene)hydrazinyl)-2-morpholino-9H-purin-9-yl)azetidin-1-yl (pyridin-3-yl)methanone] | 60.95
14 | COC(=O)N1CC(n2cnc3c(N/N=C/c4cccc(C)c4)nc(N4CCOCC4)nc32)C1 [Example 83, methyl (E)-3-(6-(2-(3-methylbenzylidene)hydrazinyl)-2-morpholino-9H-purin-9-yl)azetidine-1-carboxylate] | 63.61

Other lines, results leading:

Row | ADP-Glo kinase assay (%, 10 nM) [%] | SMILES
15 | 58.50 | Cc1cccc(/C=N/Nc2nc(N3CCOCC3)nc3c2ncn3C2CCN(C(=O)c3ccccn3)CC2)c1 [Example 94, (E)-(4-(6-(2-(3-methylbenzylidene)hydrazinyl)-2-morpholino-9H-purin-9-yl)piperidin-1-yl)(pyridin-2-yl)methanone]
16 | 91.62 | Cc1cccc(/C=N/Nc2nc(N3C[C@H]4C[C@@H]3CO4)nc3c2ncn3-c2cccnc2)c1 [Example 98, (1R,4R)-5-(6-(2-(3-methylbenzylidene)hydrazinyl)-9-(pyridin-3-yl)-9H-purin-2-yl)-oxa-5-azabicyclo[2.2.1]heptane]
17 | 67.79 | Cc1cccc(/C=N/Nc2nc(N3CCOCC3)nc3c2ncn3-c2nccs2)c1 [Example 117, (E)-4-(6-(2-(3-methylbenzylidene)hydrazinyl)-9-(thiazol-2-yl)-9H-purin-2-yl)morpholine]
18 | 69.14 | Cc1cccc(/C=N/Nc2nc(N3CCOCC3)nc3c2ncn3-c2cccc(C(F)(F)F)c2)c1 [Example 130, (E)-4-(6-(2-(3-methylbenzylidene)hydrazinyl)-9-(3-(trifluoromethyl)phenyl)-9H-purin-2-yl)morpholine]
19 | 59.84 | COc1ccc(-n2cnc3c(-n4ccc(-c5cccc(C)c5)n4)nc(N4CCOCC4)nc32)cc1 [Example 134, 4-(9-(4-methoxyphenyl)-6-(3-(m-tolyl)-1H-pyrazol-1-yl)-9H-purin-2-yl)morpholine]
20 | 51.18 | Cc1cccc(-c2ccn(-c3nc(N4CCOCC4)nc4c3ncn4-c3cccc(Cl)c3)n2)c1 [Example 135, 4-(9-(3-chlorophenyl)-6-(3-(m-tolyl)-1H-pyrazol-1-yl)-9H-purin-2-yl)morpholine]
21 | 64.23 | Cc1cccc(-c2ccn(-c3nc(N4CCOCC4)nc4c3ncn4-c3cccc(OC4CC4)c3)n2)c1 [Example 138, 4-(9-(3-cyclopropoxyphenyl)-6-(3-(m-tolyl)-1H-pyrazol-1-yl)-9H-purin-2-yl)morpholine]
22 | 68.43 | Cc1cccc(/C=N/Nc2nc(N3CCOCC3)nc3c2ncn3-c2ncccc2C)c1 [Example 142, (E)-4-(6-(2-(3-methylbenzylidene)hydrazinyl)-9-(3-methylpyridin-2-yl)-9H-purin-2-yl)morpholine]
23 | 63.58 | Cc1cccc(/C=N/Nc2nc(N3CCOCC3)nc3c2nc(C)n3-c2cc(C)n(C)n2)c1 [Example 153, (E)-4-(9-(1,5-dimethyl-1H-pyrazol-3-yl)-8-methyl-6-(2-(3-methylbenzylidene)hydrazinyl)-9H-purin-2-yl)morpholine]
24 | 65.90 | Cc1cccc(/C=N/Nc2nc(N3CCOCC3)nc3c2nc(C)n3CC(=O)c2ccccc2)c1 [Example 156, (E)-2-(8-methyl-6-(2-(3-methylbenzylidene)hydrazinyl)-2-morpholino-9H-purin-9-yl)-1-phenylethan-1-one]
25 | 63.93 | Cc1cccc(/C=N/Nc2nc(N3CCOCC3)nc3c2nc(C)n3CC(=O)c2cccnc2)c1 [Example 158, (E)-2-(8-methyl-6-(2-(3-methylbenzylidene)hydrazinyl)-2-morpholino-9H-purin-9-yl)-1-(pyridin-3-yl)ethan-1-one]
26 | 65.33 | Cc1cccc(/C=N/Nc2nc(N3CCOCC3)nc3c2nc(C)n3CC(=O)c2ccncc2)c1 [Example 159, (E)-2-(8-methyl-6-(2-(3-methylbenzylidene)hydrazinyl)-2-morpholino-9H-purin-9-yl)-1-(pyridin-4-yl)ethan-1-one]
27 | 77.75 | COc1cccc(-n2c(C)nc3c(N/N=C/c4cccc(C)c4)nc(N4CCOCC4)nc32)c1 [Example 160, (E)-4-(9-(3-methoxyphenyl)-8-methyl-6-(2-(3-methylbenzylidene)hydrazinyl)-9H-purin-2-yl)morpholine]
28 | 79.72 | COc1ccc(-n2c(C)nc3c(N/N=C/c4cccc(C)c4)nc(N4CCOCC4)nc32)cc1 [Example 161, (E)-4-(9-(4-methoxyphenyl)-8-methyl-6-(2-(3-methylbenzylidene)hydrazinyl)-9H-purin-2-yl)morpholine]
29 | 78.79 | Cc1cccc(/C=N/Nc2nc(N3CCOCC3)nc3c2nc(C)n3-c2cccc(F)c2)c1 [Example 162, (E)-4-(9-(3-fluorophenyl)-8-methyl-6-(2-(3-methylbenzylidene)hydrazinyl)-9H-purin-2-yl)morpholine]
30 | 54.29 | Cc1cccc(/C=N/Nc2nc(N3CCOCC3)nc3c2nc(C)n3-c2cccc(Cl)c2)c1 [Example 163, (E)-4-(9-(3-chlorophenyl)-8-methyl-6-(2-(3-methylbenzylidene)hydrazinyl)-9H-purin-2-yl)morpholine]

Source: US20250388582A1, “NOVEL BICYCLIC HETEROARYL COMPOUND AND USE THEREOF” (ILDONG PHARMACEUTICAL CO., LTD., priority 2022, published 2025)
